The source of these data is the RepoRT retention time repository (doi:10.1021/acs.analchem.2c02893).

The data set in a line: RP, Thermo Scientific Acclaim RSLC 120 C18, 100 × 2.1 mm, 2.2 µm, 30 °C, 0.2 mL/min, estimated dead time 1.1 min; A: 90% water + 10% methanol + 0.01% formic acid + 5 mM ammonium formate, pH 3.61; B: methanol + 0.01% formic acid + 5 mM ammonium formate, pH 3.61; gradient (min/%B) 0/1 1/1 2/39 13/99.9 15/99.9 15.1/1 20.1/1. The note with it: stereoisomer not certain.
Turning to `Nc1ccc(S(=O)(=O)NC(=O)c2ccccc2)cc1` [Sulfabenzamide], the LC retention time is 4.72 min.

Take `O=C(c1cccc2ccccc12)c1cn(CC2CCCCC2)c2ccccc12` [NE-CHMIMO]: the LC retention time was 13 min.

As for `CC12C=CC(=O)C=C1CCC1C2C(O)CC2(C)C1CCC2(O)C(=O)CO` (configuration not stated) [Prednisolone], the LC retention time was 7.84 min.

Turning to `Nc1c(Cl)cc([N+](=O)[O-])cc1Cl` [Dicloran], the LC retention time was 8.84 min. The figure for `O=C(NC(=O)c1c(F)cccc1F)Nc1ccc(Oc2ccc(C(F)(F)F)cc2Cl)cc1F` [Flufenoxuron] is 12.9 min; for `CN(C)S(=O)(=O)N(SC(F)(Cl)Cl)c1ccccc1` [Dichlofluanid] it is 10 min. For `CCCNC(C)C(=O)Nc1c(C)csc1C(=O)OC` (configuration not stated) [Carticaine (Articaine)] the value was 4.69 min; for `COP(=O)(OC)OC1=C(Cl)C2CC=CC12` (configuration not stated) [Heptenophos], 8.49 min. The figure for `O=C1CN=C(c2ccccc2F)c2cc(Cl)ccc2N1` [Flurazepam-Desalkyl] is 8.74 min; for `c1ccc2sc(NC3CCCCC3)nc2c1` [N-Cyclohexyl-2-benzothiazol-amine] it is 10.9 min. Consider `CN(C)C(=O)NC1CCCCCCC1` [Cycluron], for which the LC retention time was 8.47 min. For `CCCc1nn(C)c2c(=O)[nH]c(-c3cc(C(=O)CN4CCCCC4)ccc3OCC)nc12` [Piperiacetildenafil] the value was 7.14 min; for `CN(C)CCOC(c1ccc(Cl)cc1)c1ccccn1` (configuration not stated) [Carbinoxamine], 6.08 min. For `CNC(C)C(=O)c1ccccc1` (configuration not stated) [Methcathinone] the value was 3.68 min; for `O=C(O)Cc1c[nH]c2ccccc12` [Indole-3-acetic acid], 5.78 min. The figure for `CCCOc1nn(C(=O)NS(=O)(=O)c2ccccc2C(=O)OC)c(=O)n1C` [Propoxycarbazone] is 5.73 min. With `CCCCCn1cc(C(=O)c2cccc3ccccc23)cc1-c1ccccc1C` [JWH-370], the LC retention time is 13.4 min. In the case of `O=C1CN=C(c2ccccc2)c2cc([N+](=O)[O-])ccc2N1` [Nitrazepam], the LC retention time is 7.79 min. The figure for `CCCCCc1cc(O)c2c(c1)OC(C)(C)C1CCC(CO)=CC21` (configuration not stated) [THC-OH. 11-OH-THC] is 12.5 min.

Regarding `COc1nc(C)nc(N)n1` [2-Methyl-4-amino-6-methoxy-s-triazine], the LC retention time was 3.71 min. `CCCC(C)(COC(N)=O)COC(N)=O` [Meprobamate]: the LC retention time was 5.94 min. For `COP(=O)(OC)Oc1ccc(SC)c(C)c1` [Fenthion-oxon] the value was 8.82 min; for `CC(NC(C)(C)C)C(=O)c1cccc(Cl)c1` (configuration not stated) [Bupropion], 5.76 min.

For the molecule `CCC(C)(CC)c1cc(NC(=O)c2c(OC)cccc2OC)on1` [Isoxaben], the LC retention time is 9.42 min. The figure for `COP(=O)(OC)OC(Br)C(Cl)(Cl)Br` (configuration not stated) [Naled] is 8.55 min.

For the molecule `CON(C)C(=O)Nc1ccc(Cl)c(Cl)c1` [Linuron], the LC retention time is 9.3 min.

On to `CC1COc2ccccc2N1C(=O)C(Cl)Cl` (configuration not stated) [Benoxacor], for which the LC retention time is 8.87 min. The figure for `CN1CC2c3ccccc3Oc3ccc(Cl)cc3C2C1` (configuration not stated) [Asenapine] is 7.39 min; for `CCCSC(=O)N(CCC)CCC` [Vernolate] it is 11.5 min. For `COC(=O)C1C(O)CCC2CN3CCc4c([nH]c5ccccc45)C3CC21` (configuration not stated) [Yohimbine] the value was 5.08 min; for `CN1C2CCC1CC(OC(c1ccccc1)c1ccccc1)C2` (configuration not stated) [Benzatropine], 7.97 min. As to `O=c1[nH]c2ccccc2n1CCCN1CCN(C(c2ccccc2)c2ccccc2)CC1` [Oxatomide], the LC retention time is 8.42 min.
